For the test, the system named is 292921-168-R tumor spheroid viability. Kind of test: Anticancer human tumor 292921-168-R patient-derived pancreatic carcinoma cell line growth inhibition. The note with it: spheroids with HUVEC and MSC; for viability, T/C: stronger effect = lower value. An outline of the steps: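 Single agents and combinations were tested on spheroids built from tumor cells plus HUVEC and hMSC, at half-log dilutions starting at or near clinical Cmax, else 10 microM; final DMSO 0.25% (v/v).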

pIC50: −log10 of the molar value. Where “and” joins values, the source holds several entries; their conditions need not be identical. Equal entries are not always repeated.
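Note: spheroids exposed to compounds for 7 days.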

One may read the pIC50 as the IC50 on a negative log10 scale, so that one unit is a factor of ten. The term viability, T/C denotes the ratio of treated to control. Turning to `Cn1ncnc1[C@H]1c2n[nH]c(=O)c3cc(F)cc(c23)N[C@@H]1c1ccc(F)cc1` + COc1cc2c(cc1O)CCNC21CSC2c3c(OC(C)=O)c(C)c4c(c3C(COC1=O)N1C(O)C3Cc5cc(C)c(OC)c(O)c5C(C21)N3C)OCO4, the pIC50 reads like this: (curve of first compound, second compound 30 pM) 6.19; (curve of first compound, second compound 94.9 pM) 6.63; (curve of first compound, second compound 0.0003 µM) > 8.02; (curve of first compound, second compound 0.000949 µM) > 8.02; (curve of first compound, second compound 0.003 µM) > 8.02. In addition, the viability, T/C by setting is: (second compound 30 pM, first compound 0.00949 µM) 103%; (second compound 30 pM, first compound 0.03 µM) 86.9%; (second compound 30 pM, first compound 0.0949 µM) 76.5%; (second compound 30 pM, first compound 0.3 µM) 70.5%; (second compound 30 pM, first compound 0.949 µM) 41.4%; (second compound 30 pM, first compound 3 µM) 11.9%. Moreover, the viability, T/C was 85.1% (second compound 94.9 pM, first compound 0.00949 µM); 69.8% (second compound 94.9 pM, first compound 0.03 µM); 65.1% (second compound 94.9 pM, first compound 0.0949 µM); 47.5% (second compound 94.9 pM, first compound 0.3 µM); 26.4% (second compound 94.9 pM, first compound 0.949 µM); 9.68% (second compound 94.9 pM, first compound 3 µM). Besides, the viability, T/C (second compound 0.0003 µM, first compound 0.00949 µM) was 26.6%; the viability, T/C (second compound 0.0003 µM, first compound 0.03 µM) was 29.4%; the viability, T/C (second compound 0.0003 µM, first compound 0.0949 µM) was 24.2%; the viability, T/C (second compound 0.0003 µM, first compound 0.3 µM) is 17.1%; the viability, T/C (second compound 0.0003 µM, first compound 0.949 µM) is 14.6%; the viability, T/C (second compound 0.0003 µM, first compound 3 µM) is 7%. Moreover, the viability, T/C reads like this: (second compound 0.000949 µM, first compound 0.00949 µM) 4.23%; (second compound 0.000949 µM, first compound 0.03 µM) 4.2%; (second compound 0.000949 µM, first compound 0.0949 µM) 3.68%; (second compound 0.000949 µM, first compound 0.3 µM) 2.89%; (second compound 0.000949 µM, first compound 0.949 µM) 1.55%; (second compound 0.000949 µM, first compound 3 µM) 0.27%. Moreover, the viability, T/C (second compound 0.003 µM, first compound 0.00949 µM) is 0.19%; the viability, T/C (second compound 0.003 µM, first compound 0.03 µM) is 0.19%; the viability, T/C (second compound 0.003 µM, first compound 0.0949 µM) was 0.17%; the viability, T/C (second compound 0.003 µM, first compound 0.3 µM) was 0.22%; the viability, T/C (second compound 0.003 µM, first compound 0.949 µM) is 0.18%; the viability, T/C (second compound 0.003 µM, first compound 3 µM) was 0.42%.
For the compound `CC1COCCN1c1cc(-c2ccnn2C)c2ccnc(-c3ccn[nH]3)c2n1` (centres undefined), the viability, T/C is 26.3% and 36.1% and 39.6% (compound 0.0316 µM); 14.2% and 20.1% and 22% (compound 0.1 µM); 11.9% and 13.8% and 14.4% (compound 0.316 µM); 13.8% and 13.7% (2×) (compound 1 µM); 14.8% and 14.5% and 14.9% (compound 3.16 µM); 16.8% and 16% and 16.7% (compound 10 µM). Under “curve of compound”, the pIC50 was > 7.50.
Consider `CC1COCCN1c1cc(-c2ccnn2C)c2ccnc(-c3ccn[nH]3)c2n1` (centres undefined) + Cn1nnc2c(C(N)=O)ncn2c1=O, for which the pIC50 (curve of first compound, second compound 1 µM) was > 7.50; the pIC50 (curve of first compound, second compound 3.16 µM) was > 7.50; the pIC50 (curve of first compound, second compound 10 µM) is > 7.50; the pIC50 (curve of first compound, second compound 31.6 µM) is > 7.50; the pIC50 (curve of first compound, second compound 100 µM) is > 7.50. Also, the viability, T/C is 29% (second compound 1 µM, first compound 0.0316 µM); 15.5% (second compound 1 µM, first compound 0.1 µM); 13% (second compound 1 µM, first compound 0.316 µM); 13.1% (second compound 1 µM, first compound 1 µM); 14.6% (second compound 1 µM, first compound 3.16 µM); 15.8% (second compound 1 µM, first compound 10 µM). Further, the viability, T/C was 30.4% (second compound 3.16 µM, first compound 0.0316 µM); 17.8% (second compound 3.16 µM, first compound 0.1 µM); 14.5% (second compound 3.16 µM, first compound 0.316 µM); 13% (second compound 3.16 µM, first compound 1 µM); 14.2% (second compound 3.16 µM, first compound 3.16 µM); 15.8% (second compound 3.16 µM, first compound 10 µM). For the same compound, the viability, T/C (second compound 10 µM, first compound 0.0316 µM) is 27.9%; the viability, T/C (second compound 10 µM, first compound 0.1 µM) was 16.2%; the viability, T/C (second compound 10 µM, first compound 0.316 µM) was 12.1%; the viability, T/C (second compound 10 µM, first compound 1 µM) was 12.8%; the viability, T/C (second compound 10 µM, first compound 3.16 µM) is 15.2%; the viability, T/C (second compound 10 µM, first compound 10 µM) was 15.6%. Moreover, the viability, T/C was 24.3% (second compound 31.6 µM, first compound 0.0316 µM); 17.9% (second compound 31.6 µM, first compound 0.1 µM); 12.5% (second compound 31.6 µM, first compound 0.316 µM); 12.8% (second compound 31.6 µM, first compound 1 µM); 13.9% (second compound 31.6 µM, first compound 3.16 µM); 15.3% (second compound 31.6 µM, first compound 10 µM). Besides, the viability, T/C runs as follows: (second compound 100 µM, first compound 0.0316 µM) 16.9%; (second compound 100 µM, first compound 0.1 µM) 11.8%; (second compound 100 µM, first compound 0.316 µM) 9.95%; (second compound 100 µM, first compound 1 µM) 11.3%; (second compound 100 µM, first compound 3.16 µM) 13%; (second compound 100 µM, first compound 10 µM) 14.7%.
Regarding `[2H]c1nc(C)nc([2H])c1-c1cc(NC[C@@H](C)c2cccc3c(C(=O)NC)ccnc23)ncn1`, the viability, T/C runs as follows: (compound 0.0316 µM) 106% and 103% (2×); (compound 0.1 µM) 104% and 93.4% and 89.7%; (compound 0.316 µM) 104% and 100% and 97.8%; (compound 1 µM) 115% and 99.2% and 93.3%; (compound 3.16 µM) 113% and 101% and 96.8%; (compound 10 µM) 95.7% and 91.2% and 95.8%. For the setting “curve of compound”, the negative-log IC50 (pIC50) was < 5.00.

These data come from PubChem BioAssay AID1845196 (Molecular Pharmacology Branch, DTP, NCI, 2023).
